Assay results as given in patent US20240309014A1, “MACROCYCLIC COMPOUNDS AND USES THEREOF” (President and Fellows of Harvard College, priority 2017, published 2024).

Test system: α-SMA expression in BJ normal human fibroblasts
Assay: α-SMA expression in BJ fibroblasts co-cultivated with FaDu cells
Format: cell-based
Conditions: BJ cells co-cultured with FaDu for three days
Protocol: FIG. 19A. BJ cells (normal human […] fibroblasts) were co-cultured with FaDu cells for three days in the absence (vehicle) or presence of A83-01, a potent selective TGF-β-R inhibitor, and the expression of α-SMA was analysed by immunofluorescence staining (red color). Samples were also stained with anti-pan-human cytokeratin (green color) for cancer cell staining and DAPI (blue color) for nuclear staining. FIGS. 19B-19E BJ cells were treated with Compound (1) (0.15 nmol/L in immunofluorescence staining data and indicated concentrations in western blot analysis data) and TGF-β for 2 days. FIGS. 19B-19E. Samples were stained with the indicated antibody (red color) and DAPI (blue color) for nuclear staining. FIG. 19E Western blot images and quantification of the images. […] FIGS. 19G and 19E BJ cells were pretreated with defactinib (1 μmol/L) and TGF-β for 2 days. The lens magnification used was x4 (FIGS. 19A, 19B, 19C, 19G, and 19H) or x40 (FIGS. 19D and 19E).
The expression of α-SMA was induced in BJ normal human fibroblasts upon co-cultivation with FaDu cells, and the expression was attenuated by treatment with A83-01, a potent selective inhibitor of the TGF-β-receptor (FIG. 19A).

## Cc1cccc(-c2nn(C(=S)Nc3ccccc3)cc2-c2ccnc3ccccc23)n1 [Compound A83-01]
  expression of α-SMA induced upon co-cultivation with FaDu cells: attenuated
